22 compounds from ChEMBL document CHEMBL1121978, “Ultra-short-acting beta-adrenergic receptor blocking agents. 2. (Aryloxy)propanolamines containing esters on the aryl function” (J Med Chem, 1982) can be followed below.

The source made the active and inactive calls. No cut-off for these calls is given here.

Assay [1] addresses Beta-1 adrenergic receptor (Canis lupus familiaris) (UniProt P79148).
For assay [2] the target is unchanged. The source holds these as a separate data set.
Assay [3] addresses Beta-1 adrenergic receptor (Cavia porcellus, UniProt B0FL73). Kind of assay: The compound was tested in vitro for its ability to block Beta-1 adrenergic receptor in guinea pig right atria preparation. The following applies: read-out: pA2 (converted).
In assay [4] the target is Beta-1 adrenergic receptor (Cavia porcellus) (UniProt B0FL73).
Beta-1 adrenergic receptor (Cavia porcellus), sequence (B0FL73 1-467): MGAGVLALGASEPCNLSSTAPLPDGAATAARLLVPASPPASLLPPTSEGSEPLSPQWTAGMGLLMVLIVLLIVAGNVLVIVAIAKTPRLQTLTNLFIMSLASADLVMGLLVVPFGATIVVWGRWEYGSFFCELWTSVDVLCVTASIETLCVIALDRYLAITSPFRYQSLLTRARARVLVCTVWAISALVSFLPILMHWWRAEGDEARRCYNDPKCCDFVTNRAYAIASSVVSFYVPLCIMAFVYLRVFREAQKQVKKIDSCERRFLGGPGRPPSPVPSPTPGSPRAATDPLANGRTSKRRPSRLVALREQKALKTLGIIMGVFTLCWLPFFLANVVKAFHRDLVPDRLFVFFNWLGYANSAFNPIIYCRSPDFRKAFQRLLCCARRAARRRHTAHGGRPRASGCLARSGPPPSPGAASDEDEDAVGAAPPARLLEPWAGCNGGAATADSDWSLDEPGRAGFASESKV
Description: The compound was tested in vivo for its ability to block beta-1-adrenergic receptor in guinea pig right atria preparation at a duration of 3h
The target is the same in assay [5]. Kind of assay: Cardioselectivity expressed as antilog of pA2 (atria)-pA2 (trachea).
The target is the same in assay [6]. The assay is described as follows: The compound was tested in vitro for its ability to block Beta-1 adrenergic receptor in guinea pig right atria preparation at 10e-5M; inactive.

Beta-1 adrenergic receptor, sequence (B0FL73 whole entry): as the sequence (B0FL73 1-467) above

In assay [1], `COC(=O)c1ccccc1OCC(O)CNCCc1ccc(OC)c(OC)c1` (stereo not drawn) displayed an In vivo duration of 30 min. On the same count and under the same terms, next, `CCOC(=O)c1ccccc1OCC(O)CNC(C)(C)C` (stereo not drawn): 38 min. Take `CCOC(=O)c1ccc(OCC(O)CNC(C)C)cc1` (stereo not drawn): the In vivo duration in assay [2] is 56 min. Still for that read-out and setting: next, `COC(=O)c1ccc(OCC(O)CNC(C)(C)C)cc1` (stereo not drawn): 22 min. As to `COC(=O)CCc1ccc(OCC(O)CNC(C)(C)C)cc1` (stereo not drawn), in assay [1], the In vivo duration came out at 15 min.

For the compound `C=COC(=O)c1cccc(OCC(O)CNC(C)C)c1` (stereo not drawn), the Kb in assay [3] was 0.126 µM. The compound further yielded an In vivo duration in assay [4] above 60 min. On to `C=COC(=O)c1ccc(OCC(O)CNC(C)C)cc1` (stereo not drawn), for which the Kb in assay [3] is 0.501 µM. For the same compound, in assay [5], the Cardio selectivity came to 5. In assay [5], `COC(=O)/C=C/c1ccc(OCC(O)CNC(C)C)cc1` (stereo not drawn) yielded a Cardio selectivity of 18. In assay [1], this compound came in with an In vivo duration above 60 min. Take `CC(=O)Nc1ccc(OCC(O)CNC(C)C)cc1` (stereo not drawn): in assay [2], the In vivo duration was determined as 61 min. `CCOC(=O)CCc1ccc(OCC(O)CNC(C)C)cc1` (stereo not drawn) displayed a Cardio selectivity in assay [5] of 30. For the same compound, in assay [1], the In vivo duration was determined as 43 min. For the compound `COC(=O)c1ccccc1OCC(O)CNC(C)(C)C` (stereo not drawn), the In vivo duration in assay [1] came out at 22 min; in assay [2] it was 12 min.

In assay [1], `COC(=O)CCc1ccccc1OCC(O)CNC(C)C` (stereo not drawn) showed an In vivo duration of 29 min. As for `COC(=O)Cc1ccc(OCC(O)CNC(C)C)cc1` (stereo not drawn), the values for the In vivo duration in assay [1] and in assay [2] were above 60 min and 20 min, respectively.

Turning to `CC(C)NCC(O)COc1ccc(C(=O)O)cc1` (stereo not drawn), in assay [6], the pA2 entry was “inactive”. In assay [5], `COC(=O)CCc1ccc(OCC(O)CNCCc2ccc(OC)c(OC)c2)cc1` (stereo not drawn) came in with a Cardio selectivity of 20. In addition, the In vivo duration in assay [1] came to 14 min. Turning to `COC(=O)CCc1ccc(OCC(O)CNCCCc2ccccc2)cc1` (stereo not drawn), in assay [5], the Cardio selectivity stood at 20. In assay [2], `COC(=O)c1ccc(OCC(O)CNC(C)C)cc1` (stereo not drawn) registered an In vivo duration of 31 min. As for `C=COC(=O)c1ccccc1OCC(O)CNC(C)C` (stereo not drawn), in assay [3], the Kb is 0.0126 µM. `COC(=O)c1ccccc1OCC(O)CNC(C)C` (stereo not drawn): the In vivo duration in assay [1] and in assay [2] was 15 min throughout. As to `COC(=O)CCc1ccc(OCC(O)CNC(C)C)cc1` (stereo not drawn), the In vivo duration in assay [1] and in assay [2] was 12 min in each case. As for `COC(=O)c1ccccc1OCC(O)CNC(C)(C)CO` (stereo not drawn), in assay [1], the In vivo duration worked out at 55 min. In the case of `COC(=O)CCCc1ccc(OCC(O)CNC(C)C)cc1` (stereo not drawn), the Cardio selectivity in assay [5] came to 13. The In vivo duration in assay [1] is above 60 min; in assay [2], 40 min.
